Test results as given in US20130130912A1, “AGROCHEMICAL FORMULATION COMPOSITION” (priority 2010, published 2013).

Experiments:
[1] = solubility of pesticide actives in dialkyl carbonate solvents (CIPAC method MT181); assay type: physicochemical; conditions: 20 deg C.; for solubility in Bis-(2-ethylhexyl) carbonate solvent: Bis-(2-ethylhexyl) carbonate solvent (comparative)
Text: All solubility measurements are done according to the CIPAC method MT181.

[2] = phytotoxic properties of dialkyl carbonates
Text: A further advantage of the dialkylcarbonates used, is their compatibility with construction materials used in spraying equipment.

| Compound | solubility in Bis-(2-ethylhexyl) carbonate solvent [1] | SOLUBILITY OF PESTICIDE ACTIVES IN di-n-butylcarbonate (DNBC) SOLVENT [1] [grams/litre] | solubility in di-n-pentyl carbonate solvent [1] | SOLUBILITY OF PESTICIDE ACTIVES IN di-n-propylcarbonate (DNPC) SOLVENT [1] [grams/litre] | phytotoxicity [2] |
| --- | --- | --- | --- | --- | --- |
| CCNc1nc(NC(C)C)nc(SC)n1 [Ametryn] | 80-100 grams/litre | 350 | 120 grams/litre | >250 |  |
| CCCCOC(=O)OCCCC [di-n-butyl carbonate, di-n-butylcarbonate] |  |  |  |  | not to be phytotoxic |
| CC(C)(C)C(O)(CCc1ccc(Cl)cc1)Cn1cncn1 (centres unmarked) [Tebuconazole] | <10 grams/litre | 140 | 33-40 grams/litre | >100 |  |
| CCCN(CCC)c1c([N+](=O)[O-])cc(C(F)(F)F)cc1[N+](=O)[O-] [Trifluralin] | 80-100 grams/litre | >600 | >250 grams/litre | >600 |  |
| Fc1ccc([C@]2(Cn3cncn3)O[C@H]2c2ccccc2Cl)cc1 (racemic) [Epoxiconazole] | <10 grams/litre | 45 | 20-25 grams/litre |  |  |
| CCC(CC)Nc1c([N+](=O)[O-])cc(C)c(C)c1[N+](=O)[O-] [Pendimethalin] | 80-100 grams/litre | >300 | >100 grams/litre | >300 |  |
| O=C(Nc1ccc(F)cc1F)c1cccnc1Oc1cccc(C(F)(F)F)c1 [Diflufenican] | <10 grams/litre | <50 | 14-20 grams/litre |  |  |
| CC(C)(C)C(O)C(Oc1ccc(Cl)cc1)n1cncn1 (centres unmarked) [Triadimenol] | <10 grams/litre | 45 | 20-25 grams/litre |  |  |
| CCc1cccc(C)c1N(C(=O)CCl)C(C)COC (centres unmarked) [Metolachlor] | >200 grams/litre | >600 | >200 grams/litre |  |  |
